Test results reported in paper PMC8259857, “Anti-tubercular activity and molecular docking studies of indolizine derivatives targeting mycobacterial InhA enzyme” (Journal of Enzyme Inhibition and Medicinal Chemistry, 2021).
Values after ≈ are worked out from the molar mass of the structure shown.

Test system: MDR-MTB (rifampicin and isoniazid-resistant MTB strain)
Assay: microbe, parasite or virus in culture
Assay type: cell-based, Mycobacterium tuberculosis
Settings: MIC MDR-MTB versus MIC H37Rv

`CCOC(=O)c1cc(C(=O)c2ccc([N+](=O)[O-])cc2)n2ccccc12` [Compound 2d] was tested. Which “fold reduced MDR-MTB activity compared to H37Rv MTB strain” value did it give?
The value was 8 fold.

With `CCOC(=O)c1c(C)c(C(=O)c2ccc(F)cc2)n2ccccc12` [Compound 3a] as the compound, how does the “fold reduced MDR-MTB activity compared to H37Rv MTB strain” value read?
Its value is 8 fold.

Same assay, conditions: Mycobacterium tuberculosis, read-out: MIC MDR-MTB

`CCOC(=O)c1cc(C(=O)c2ccc([N+](=O)[O-])cc2)n2ccccc12` [Compound 2d] was tested. Which MIC did it give?
Its MIC is 64 µg/mL (≈ 189 µM).

`CCOC(=O)c1c(C)c(C(=O)c2ccc(F)cc2)n2ccccc12` [Compound 3a] was tested. Which MIC did it give?
The MIC was 32 µg/mL (≈ 98.4 µM).

For `CCOC(=O)c1c(C(=O)OCC)c2ccccn2c1C(=O)c1ccc(F)cc1` [Compound 4a, Diethyl-3-(4-fluorobenzoyl)indolizine-1,2-dicarboxylate], which MIC is on record?
The MIC was 16 µg/mL (≈ 41.7 µM).

With `CCOC(=O)c1c(C(=O)OCC)c2ccccn2c1C(=O)c1ccc(Cl)cc1` [Compound 4b, Diethyl-3-(4-chlorobenzoyl)indolizine-1,2-dicarboxylate] as the compound, how does the MIC read?
Its MIC is 16 µg/mL (≈ 40 µM).

How did the MIC turn out when `CCOC(=O)c1c(C(=O)OCC)c2ccccn2c1C(=O)c1ccc([N+](=O)[O-])cc1` [Compound 4c, Diethyl-3-(4-nitrobenzoyl)indolizine-1,2-dicarboxylate] was run?
The MIC was 64 µg/mL (≈ 156 µM).

For `NNC(=O)c1ccncc1` [Isoniazid, reference compound], which MIC is on record?
The MIC was no less than 0.2 µg/mL.

How did the MIC turn out when `CO[C@H]1/C=C/O[C@@]2(C)Oc3c(C)c(O)c4c(O)c(c(/C=N/N5CCN(C)CC5)c(O)c4c3C2=O)NC(=O)/C(C)=C\C=C\[C@H](C)[C@H](O)[C@@H](C)[C@@H](O)[C@@H](C)[C@H](OC(C)=O)[C@@H]1C` [Rifampicin, reference compound] was run?
The MIC was no less than 1 µg/mL.

Same assay, conditions: isolates resistant to rifampicin (1 μg/mL) and isoniazid (0.2 μg/mL); NA: not active at the concentration range (0.2–64 μg/mL)

How did the “MIC MDR-MTB” value turn out when `CCOC(=O)c1cc(C(=O)c2ccc(C)cc2)n2ccccc12` [Compound 2e] was run?
Its value is “completely abolished the activity”.

With `CCOC(=O)c1cc(C(=O)c2ccc(C#N)cc2)n2ccccc12` [Compound 2f] as the compound, how does the “MIC MDR-MTB” value read?
The value was “completely abolished the activity”.

`CCOC(=O)c1c(C)c(C(=O)c2ccc(Cl)cc2)n2ccccc12` [Compound 3b] was tested. Which “MIC MDR-MTB” value did it give?
Its value is “inactive”.

For `CCOC(=O)c1c(C)c(C(=O)c2ccc([N+](=O)[O-])cc2)n2ccccc12` [Compound 3d], which “MIC MDR-MTB” value is on record?
The value was “inactive”.
